The values that follow come from ChEMBL document CHEMBL1136268, “Retinoic acid receptor ligands based on the 6-cyclopropyl-2,4-hexadienoic acid” (Bioorg Med Chem Lett, 2003).

For assay [1], the target named is T1, Retinoic acid receptor gamma (Homo sapiens, UniProt P13631).
T1 sequence (P13631 whole entry): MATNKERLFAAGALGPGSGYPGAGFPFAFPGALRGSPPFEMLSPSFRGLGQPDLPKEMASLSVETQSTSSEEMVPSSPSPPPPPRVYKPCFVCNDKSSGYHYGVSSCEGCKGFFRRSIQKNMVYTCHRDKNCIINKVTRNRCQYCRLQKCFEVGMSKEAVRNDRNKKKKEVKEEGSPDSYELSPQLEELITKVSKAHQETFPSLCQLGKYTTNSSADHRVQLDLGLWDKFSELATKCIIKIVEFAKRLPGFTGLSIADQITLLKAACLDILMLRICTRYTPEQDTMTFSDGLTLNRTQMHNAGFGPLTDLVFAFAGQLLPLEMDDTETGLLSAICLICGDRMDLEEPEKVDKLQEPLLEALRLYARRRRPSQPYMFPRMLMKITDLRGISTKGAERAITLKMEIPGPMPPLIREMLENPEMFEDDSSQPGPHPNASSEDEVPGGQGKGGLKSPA
Description: Inhibition of [3H]ATRA binding to human Retinoic acid receptor RAR gamma.

The target of assay [2] is T2, Retinoic acid receptor RXR-gamma (Homo sapiens, UniProt P48443).
T2 sequence (P48443 whole entry): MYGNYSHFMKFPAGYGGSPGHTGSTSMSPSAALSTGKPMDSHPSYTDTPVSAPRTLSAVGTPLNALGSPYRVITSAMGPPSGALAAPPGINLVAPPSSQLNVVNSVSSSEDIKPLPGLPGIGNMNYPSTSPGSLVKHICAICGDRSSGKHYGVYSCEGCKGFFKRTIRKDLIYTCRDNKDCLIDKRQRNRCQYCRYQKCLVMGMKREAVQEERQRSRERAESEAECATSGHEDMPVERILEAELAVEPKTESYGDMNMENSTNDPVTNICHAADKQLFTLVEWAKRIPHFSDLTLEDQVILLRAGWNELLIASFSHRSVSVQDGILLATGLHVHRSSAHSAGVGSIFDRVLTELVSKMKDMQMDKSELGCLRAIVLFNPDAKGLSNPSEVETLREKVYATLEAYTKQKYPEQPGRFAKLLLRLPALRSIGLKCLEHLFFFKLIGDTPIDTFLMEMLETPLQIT
Description: Inhibition of [3H]-9-cis-RA binding to human Retinoid X receptor RXR gamma.

Assay [3] concerns the target T3, Retinoic acid receptor beta (Homo sapiens, UniProt P10826).
T3 sequence (P10826 whole entry): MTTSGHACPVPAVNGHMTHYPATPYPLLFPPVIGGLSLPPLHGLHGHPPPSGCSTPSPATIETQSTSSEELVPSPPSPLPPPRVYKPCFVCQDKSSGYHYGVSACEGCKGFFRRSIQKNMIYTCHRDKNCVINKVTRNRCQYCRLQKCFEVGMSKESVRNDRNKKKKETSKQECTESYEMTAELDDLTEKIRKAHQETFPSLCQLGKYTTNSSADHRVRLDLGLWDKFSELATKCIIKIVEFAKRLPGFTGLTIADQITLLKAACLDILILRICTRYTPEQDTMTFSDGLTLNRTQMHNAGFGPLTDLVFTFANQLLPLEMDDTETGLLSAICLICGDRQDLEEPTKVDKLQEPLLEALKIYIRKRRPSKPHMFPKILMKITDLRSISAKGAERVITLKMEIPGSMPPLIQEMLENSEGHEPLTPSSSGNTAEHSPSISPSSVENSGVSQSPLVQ
Description: Transcriptional activation in CV-1 cells expressing human Retinoic acid receptor RAR beta; Not active. The format is cell-based.

The target in assay [4] is T3, Retinoic acid receptor beta. Description: Inhibition of [3H]-ATRA binding to human Retinoic acid receptor RAR beta.
For assay [5], the target named is T4, Retinoic acid receptor RXR-gamma (Mus musculus, UniProt P28705).
T4 sequence (P28705 whole entry): T2 sequence (P48443 whole entry) with A13T, Y15F, A31V, S34P, T228S, G230S, M258V, T450S
Description: Transcriptional activation in CV-1 cells expressing mouse Retinoid X receptor RXR gamma. Type of assay: cell-based.

The target in assay [6] is T5, Retinoic acid receptor alpha (Homo sapiens, UniProt P10276).
T5 sequence (P10276 whole entry): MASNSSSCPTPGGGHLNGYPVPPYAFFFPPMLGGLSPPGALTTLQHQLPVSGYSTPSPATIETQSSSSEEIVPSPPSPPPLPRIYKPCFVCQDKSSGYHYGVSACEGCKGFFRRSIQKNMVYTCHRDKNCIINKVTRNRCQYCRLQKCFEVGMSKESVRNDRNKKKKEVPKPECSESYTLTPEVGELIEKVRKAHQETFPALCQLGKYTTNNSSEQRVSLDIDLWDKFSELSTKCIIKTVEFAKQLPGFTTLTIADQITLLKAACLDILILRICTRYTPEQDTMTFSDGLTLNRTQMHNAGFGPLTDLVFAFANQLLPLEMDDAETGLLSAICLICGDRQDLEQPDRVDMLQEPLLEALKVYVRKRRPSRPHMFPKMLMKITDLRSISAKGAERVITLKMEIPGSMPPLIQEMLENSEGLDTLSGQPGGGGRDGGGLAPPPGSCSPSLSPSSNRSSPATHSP
Description: Transcriptional activation in CV-1 cells expressing human Retinoic acid receptor RAR alpha; Not active. The format is cell-based.

Assay [7] has as its target T5, Retinoic acid receptor alpha. Description: Inhibition of [3H]ATRA binding to human Retinoic acid receptor RAR alpha.
In assay [8] the target is T6, Retinoic acid receptor RXR-beta (Mus musculus, UniProt P28704).
T6 sequence (P28704 whole entry): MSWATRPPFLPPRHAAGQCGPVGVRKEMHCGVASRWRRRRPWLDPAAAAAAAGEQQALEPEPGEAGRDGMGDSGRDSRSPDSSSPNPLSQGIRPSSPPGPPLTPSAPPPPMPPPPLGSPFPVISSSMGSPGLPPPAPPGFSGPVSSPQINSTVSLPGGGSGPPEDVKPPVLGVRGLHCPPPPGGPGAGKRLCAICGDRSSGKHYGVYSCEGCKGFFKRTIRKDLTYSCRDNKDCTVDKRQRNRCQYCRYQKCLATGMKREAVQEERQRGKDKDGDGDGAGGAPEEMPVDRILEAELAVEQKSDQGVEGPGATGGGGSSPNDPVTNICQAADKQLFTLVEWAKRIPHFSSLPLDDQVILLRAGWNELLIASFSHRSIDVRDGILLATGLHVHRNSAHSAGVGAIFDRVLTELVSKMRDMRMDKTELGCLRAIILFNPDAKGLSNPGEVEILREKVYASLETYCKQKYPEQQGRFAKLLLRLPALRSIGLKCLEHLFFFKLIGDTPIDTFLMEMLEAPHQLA
Description: Inhibition of [3H]9-cis-RA binding to mouse Retinoid X receptor RXR beta.

The target in assay [9] is T6, Retinoic acid receptor RXR-beta. Description: Transcriptional activation in CV-1 cells expressing mouse Retinoid X receptor RXR beta. The format is cell-based.
In assay [10] the target is T1, Retinoic acid receptor gamma. Description: Transcriptional activation in CV-1 cells expressing human Retinoic acid receptor RAR gamma; Not active. Type of assay: cell-based.
The target in assay [11] is T7, Retinoic acid receptor RXR-alpha (Homo sapiens, UniProt P19793).
T7 sequence (P19793 whole entry): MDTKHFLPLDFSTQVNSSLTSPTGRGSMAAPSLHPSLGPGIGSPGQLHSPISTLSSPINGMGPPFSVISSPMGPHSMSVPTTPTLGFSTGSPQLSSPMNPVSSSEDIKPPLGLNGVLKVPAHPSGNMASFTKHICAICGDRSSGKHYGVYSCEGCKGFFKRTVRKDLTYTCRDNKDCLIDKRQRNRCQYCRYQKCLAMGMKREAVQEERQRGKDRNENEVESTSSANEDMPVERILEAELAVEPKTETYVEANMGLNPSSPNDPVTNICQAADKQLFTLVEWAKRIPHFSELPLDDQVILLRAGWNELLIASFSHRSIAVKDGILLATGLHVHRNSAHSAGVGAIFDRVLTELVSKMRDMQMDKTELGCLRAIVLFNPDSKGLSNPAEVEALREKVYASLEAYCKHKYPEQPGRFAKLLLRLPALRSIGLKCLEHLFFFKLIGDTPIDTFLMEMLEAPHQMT
Description: Inhibition of [3H]9-cis-RA binding to human Retinoid X receptor RXR alpha.

For assay [12], the target named is T7, Retinoic acid receptor RXR-alpha. Description: Transcriptional activation in CV-1 cells expressing human Retinoid X receptor RXR-alpha. The format is cell-based.
The target of assay [13] is T3, Retinoic acid receptor beta. Description: Transcriptional activation in CV-1 cells expressing human Retinoic acid receptor RAR beta. Type of assay: cell-based.
Assay [14] has as its target T5, Retinoic acid receptor alpha. Description: Transcriptional activation in CV-1 cells expressing human Retinoic acid receptor RAR alpha. The format is cell-based.
Assay [15] concerns the target T1, Retinoic acid receptor gamma. Description: Transcriptional activation in CV-1 cells expressing human Retinoic acid receptor RAR gamma. The format is cell-based.

For orientation: Kd means the free concentration of one partner at which half of the binding sites on the other are occupied at equilibrium, for simple one-to-one binding. Usually EC50 stands for the concentration needed to bring the measured effect to its halfway point. A high value points to weaker potency.

Where a chain is given by its changes, count along the chain named.

`CC(/C=C/CC1(c2ccc3c(c2)C(C)(C)CCC3(C)C)CCCC1)=C\C(=O)O`: the Kd in [1] was greater than 1000 nM; in [2], 6 nM; in [4], greater than 1000 nM; in assay [7], greater than 1000 nM; in assay [8] it was 7 nM. Besides, the 50% effective concentration (EC50) entry in assay [3] was “Not Active”; in [5], 24 nM; in [6], “Not Active”; in assay [9] it was 19 nM; in assay [10] it was “Not Active”.

On to `CC(/C=C/CC1(c2cc3c(cc2C)C(C)(C)CCC3(C)C)CC1)=C\C(=O)O`, for which the equilibrium dissociation constant (Kd) was greater than 1000 nM in [1]; 16 nM in [11]; 153 nM in assay [2]; greater than 1000 nM in assay [7]; 18 nM in assay [8]. Further, the EC50 entry in [3] is “Not Active”; in [5], 36 nM; in assay [6] it was “Not Active”; in assay [12] it was 31 nM; in assay [9], 9 nM; in assay [10], “Not Active”.

With `CC(/C=C/CC1(c2cc(C(C)(C)C)cc3c2CCC3(C)C)CC1)=C\C(=O)O`, the dissociation constant (Kd) in [1] is greater than 1000 nM; in assay [2] it was 22 nM; in [4], greater than 1000 nM; in assay [7], greater than 1000 nM. The EC50 entry in [3], in [6] and in assay [10] was “Not Active” throughout.

For `CC(/C=C/CC1(c2cc(C(C)(C)C)cc(C(C)(C)C)c2)CC1)=C\C(=O)O`, the Kd was greater than 1000 nM in [1]; 3 nM in assay [11]; greater than 1000 nM in assay [4]; greater than 1000 nM in assay [7]; 8 nM in assay [8]. For the same compound, the EC50 amounted to 139 nM in assay [13]; 23 nM in assay [5]; 733 nM in [14]; 30 nM in assay [12]; 19 nM in [9]; 391 nM in assay [15].

Take `CC(/C=C/CC1(c2ccc3c(c2)C(C)(C)CCC3(C)C)CC1)=C\C(=O)O`: the Kd in [2] came out at 8 nM.
